# Biological target: T1, Glucocorticoid Receptor (Homo sapiens, UniProt P04150)
# T1 construct: expressed in transfected cells
# T1 sequence (P04150 524-758 limits assumed): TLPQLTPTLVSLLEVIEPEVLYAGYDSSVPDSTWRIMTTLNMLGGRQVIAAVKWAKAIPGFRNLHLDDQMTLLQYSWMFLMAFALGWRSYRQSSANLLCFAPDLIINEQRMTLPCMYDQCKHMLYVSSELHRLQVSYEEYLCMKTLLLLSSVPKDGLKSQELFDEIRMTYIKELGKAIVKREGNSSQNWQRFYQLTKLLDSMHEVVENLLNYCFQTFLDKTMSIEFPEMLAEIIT
# Experiment: Agonistic mode of action on the glucocorticoid receptor (CHO-Gal4/GR luciferase reporter cell line)
# Type: cell-based
# Details: CHO-Gal4/GR luciferase reporter cells; observed in the agonistic assay or the antagonistic assay (mode not given); read-out: IC50 or EC50 range
# Procedure, shortened: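 CHO cells stably expressing GAL4 DBD–GR ligand-binding domain fusion with GAL4-UAS firefly luciferase reporter, seeded 24 h, then treated in Opti-MEM with 8 half-log concentrations from 10 μM to 0.003 μM (0.5% DMSO), quadruplicate. Luminescence read on FLIPR after lysis with Triton/luciferin; EC50 calculated.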
row,SMILES,"IC50 or EC50 (antagonist or agonist mode, not stated per compound)"
1,"COc1c(-c2cc(F)cc3c2ccn3CC(F)F)cc(F)c2c1-n1c(C)nnc1C(C)(C)N2 [Example 58, 8-(1-(2,2-difluoroethyl)-6-fluoro-1H-indol-4-yl)-6-fluoro-9-methoxy-1,4,4-trimethyl-4,5-dihydro-[1,2,4]triazolo[4,3-a]quinoxaline]",100 to 1000 nM
2,"Cc1c(-c2cccc3c2cnn3C)cc(F)c2c1-n1c(C)nnc1C(C)(C)N2 [Example 304, 6-Fluoro-1,4,4,9-tetramethyl-8-(1-methyl-1H-indazol-4-yl)-5H-[1,2,4]triazolo[4,3-a]quinoxaline]",100 to 1000 nM
3,"Cc1c(-c2cc(F)cc3c2cnn3S(C)(=O)=O)cc(F)c2c1-n1c(C)nnc1C(C)(C)N2 [Example 340, 6-Fluoro-8-(6-fluoro-1-methylsulfonyl-1H-indazol-4-yl)-1,4,4,9-tetramethyl-5H-[1,2,4]triazolo[4,3-a]quinoxaline]",100 to 1000 nM
4,"Cc1c(-c2cccc3c2ccn3C2CC2)cc(F)c2c1-n1c(C)nnc1C(C)(C)N2 [Example 305, 8-(1-Cyclopropyl-1H-indol-4-yl)-6-fluoro-1,4,4,9-tetramethyl-5H-[1,2,4]triazolo[4,3-a]quinoxaline]",< 100 nM
5,"CCS(=O)(=O)n1ccc2c(-c3cc(F)c4c(c3C(F)F)-n3c(C)nnc3C(C)(C)N4)cc(F)cc21 [Example 460, 9-(Difluoro-methyl)-8-[1-(ethylsulfonyl)-6-fluoro-1H-indol-4-yl]-6-fluoro-1,4,4-trimethyl-5H-[1,2,4]triazolo[4,3-a]quinoxaline]",< 100 nM
6,"CNc1c(-c2cc(F)cc3c2ccn3CCO)cc(F)c2c1-n1c(C)nnc1C(C)(C)N2 [Example 480, 2-[6-Fluoro-4-(6-fluoro-1,4,4-trimethyl-9-methylamino-5H-[1,2,4]triazolo[4,3-a]quinoxalin-8-yl)-1H-indol-1-yl]-EtOH]",100 to 1000 nM
7,"Cc1c(-c2cccc3c2ccn3CCN(C)C)cc(F)c2c1-n1c(C)nnc1C(C)(C)N2 [Example 375, [2-[4-(6-Fluoro-1,4,4,9-tetramethyl-5H-[1,2,4]triazolo[4,3-a]quinoxalin-8-yl)-1H-indol-1-yl]-ethyl]-dimethyl-amine]",100 to 1000 nM
8,"Cc1c(-c2cccc3c2cnn3S(C)(=O)=O)c(F)c(F)c2c1-n1c(C)nnc1C(C)(C)N2 [Example 451, 6,7-Difluoro-1,4,4,9-tetramethyl-8-(1-methylsulfonyl-1H-indazol-4-yl)-5H-[1,2,4]triazolo[4,3-a]quinoxaline]",100 to 1000 nM
9,"CCc1nnc2n1-c1c(C)c(-c3cccc4c(C)c[nH]c34)cc(F)c1NC2(C)C [Example 355, 1-Ethyl-6-fluoro-4,4,9-trimethyl-8-(3-methyl-1H-indol-7-yl)-5H-[1,2,4]triazolo[4,3-a]quinoxaline]",100 to 1000 nM
10,"Cc1c(-c2cccc3c2ccn3S(=O)(=O)C(C)C)cc(F)c2c1-n1c(C)nnc1C(C)(C)N2 [Example 366, 6-Fluoro-8-[1-(isopropylsulfonyl)-1H-indol-4-yl]-1,4,4,9-tetramethyl-5H-[1,2,4]triazolo[4,3-a]quinoxaline]",1000 to 15000 nM
11,"Cc1c(-c2cc(F)cc3c(C)c[nH]c23)cc(F)c2c1-n1c(C3CC3)nnc1C(C)(C)N2 [Example 66, 1-Cyclopropyl-6-fluoro-8-(5-fluoro-3-methyl-1H-indol-7-yl)-4,4,9-trimethyl-5H-[1,2,4]triazolo[4,3-a]quinoxaline]",100 to 1000 nM
12,"Cc1c(-c2cccc3c2ccn3C)cc(F)c2c1-n1c(C)nnc1C(C)(C)N2 [Example 484, 6-Fluoro-1,4,4,9-tetramethyl-8-(1-methyl-1H-indol-4-yl)-5H-[1,2,4]triazolo[4,3-a]quinoxaline]",< 100 nM
13,"CCc1nnc2n1-c1c(C)c(-c3cccc4c3ccn4S(C)(=O)=O)cc(F)c1NC2(C)C [Example 308, 1-Ethyl-6-fluoro-4,4,9-trimethyl-8-(1-methylsulfonyl-1H-indol-4-yl)-5H-[1,2,4]triazolo[4,3-a]quinoxaline]",< 100 nM
14,"COc1c(-c2cc(C(F)(F)F)cc3[nH]ccc23)cc(F)c2c1-n1c(C)nnc1C(C)(C)N2 [Example 473, 6-Fluoro-9-methoxy-1,4,4-trimethyl-8-[6-(trifluoromethyl)-1H-indol-4-yl]-5H-[1,2,4]triazolo[4,3-a]quinoxaline]",100 to 1000 nM
15,"CNc1c(-c2cc(F)cc3c2ccn3S(C)(=O)=O)cc(F)c2c1-n1c(C)nnc1C(C)(C)N2 [Example 486, [6-Fluoro-8-(6-fluoro-1-methylsulfonyl-1H-indol-4-yl)-1,4,4-trimethyl-5H-[1,2,4]triazolo[4,3-a]quinoxalin-9-yl]-methyl-amine]",100 to 1000 nM
16,"COc1c(-c2cc(F)cc3c2ccn3S(C)(=O)=O)cc(F)c2c1-n1c(C3CC3)nnc1C(C)(C)N2 [Example 59, 1-Cyclopropyl-6-fluoro-8-(6-fluoro-1-methylsulfonyl-1H-indol-4-yl)-9-methoxy-4,4-dimethyl-5H-[1,2,4]triazolo[4,3-a]quinoxaline]",1000 to 15000 nM
17,"COc1c(-c2ccc(F)c3[nH]ncc23)cc(F)c2c1-n1c(C)nnc1C(C)(C)N2 [Example 489, 6-Fluoro-8-(7-fluoro-1H-indazol-4-yl)-9-methoxy-1,4,4-trimethyl-5H-[1,2,4]triazolo[4,3-a]quinoxaline]",100 to 1000 nM
18,"COCCn1ccc2c(-c3cc(F)c4c(c3OC)-n3c(C)nnc3C(C)(C)N4)cc(F)cc21 [Example 54, 6-Fluoro-8-[6-fluoro-1-(2-methoxy-ethyl)-1H-indol-4-yl]-9-methoxy-1,4,4-trimethyl-5H-[1,2,4]triazolo[4,3-a]quinoxaline]",100 to 1000 nM
19,"CCS(=O)(=O)n1ccc2c(-c3c(C)c4c(c(F)c3F)NC(C)(C)c3nnc(C)n3-4)cc(F)cc21 [Example 446, 8-(1-(ethylsulfonyl)-6-fluoro-1H-indol-4-yl)-6,7-difluoro-1,4,4,9-tetramethyl-4,5-dihydro-[1,2,4]triazolo[4,3-a]quinoxaline]",< 100 nM

# Other lines, results leading:
row,"IC50 or EC50 (antagonist or agonist mode, not stated per compound)",SMILES
1,< 100 nM,"Cc1c(-c2cccc3[nH]ccc23)c(F)c(F)c2c1-n1c(C)nnc1C(C)(C)N2 [Example 512, 6,7-Difluoro-8-(1H-indol-4-yl)-1,4,4,9-tetramethyl-5H-[1,2,4]triazolo[4,3-a]quinoxaline]"
2,< 100 nM,"Cc1nnc2n1-c1c(c(F)c(F)c(-c3cc(F)cc4[nH]ccc34)c1C(F)(F)F)NC2(C)C [Example 516, 6,7-Difluoro-8-(6-fluoro-1H-indol-4-yl)-1,4,4-trimethyl-9-(trifluoromethyl)-5H-[1,2,4]triazolo[4,3-a]quinoxaline]"
3,100 to 1000 nM,"Cc1nnc2n1-c1c(c(F)c(F)c(-c3cc(F)cc4c3cnn4S(C)(=O)=O)c1C(F)(F)F)NC2(C)C [Example 519, 6,7-Difluoro-8-(6-fluoro-1-methylsulfonyl-1H-indazol-4-yl)-1,4,4-trimethyl-9-(trifluoromethyl)-5H-[1,2,4]triazolo[4,3-a]quinoxaline]"
4,100 to 1000 nM,"Cc1c(-c2ccc(C#N)c3[nH]ccc23)c(F)c(F)c2c1-n1c(C)nnc1C(C)(C)N2 [Example 520, 4-(6,7-difluoro-1,4,4,9-tetramethyl-4,5-dihydro-[1,2,4]triazolo[4,3-a]quinoxalin-8-yl)-1H-indole-7-carbonitrile]"
5,100 to 1000 nM,"Cc1c(-c2cccc3c2cnn3S(C)(=O)=O)c(Cl)c(F)c2c1-n1c(C)nnc1C(C)(C)N2 [Example 527, 7-Chloro-6-fluoro-1,4,4,9-tetramethyl-8-(1-methylsulfonyl-1H-indazol-4-yl)-5H-[1,2,4]triazolo[4,3-a]quinoxaline]"
6,100 to 1000 nM,"Cc1c(-c2cc(Cl)cc3[nH]ccc23)cc(F)c2c1-n1c(C)nnc1C(C)(C)N2 [Example 506, 8-(6-Chloro-1H-indol-4-yl)-6-fluoro-1,4,4,9-tetramethyl-5H-[1,2,4]triazolo[4,3-a]quinoxaline]"
7,100 to 1000 nM,"COc1c(-c2cc(F)cc3c2cnn3S(C)(=O)=O)cc(Cl)c2c1-n1c(C)nnc1C(C)(C)N2 [Example 493, 6-Chloro-8-(6-fluoro-1-methylsulfonyl-1H-indazol-4-yl)-9-methoxy-1,4,4-trimethyl-5H-[1,2,4]triazolo[4,3-a]quinoxaline]"
8,100 to 1000 nM,"COc1c(-c2cc(F)cc3cc[nH]c23)cc(F)c2c1-n1c(C)nnc1C(C)(C)N2 [Example 515, 6-Fluoro-8-(5-fluoro-1H-indol-7-yl)-9-methoxy-1,4,4-trimethyl-5H-[1,2,4]triazolo[4,3-a]quinoxaline]"
9,100 to 1000 nM,"Cc1c(-c2cc(C(F)(F)F)cc3[nH]ncc23)cc(F)c2c1-n1c(C)nnc1C(C)(C)N2 [Example 507, 6-Fluoro-1,4,4,9-tetramethyl-8-[6-(trifluoromethyl)-1H-indazol-4-yl]-5H-[1,2,4]triazolo[4,3-a]quinoxaline]"
10,< 100 nM,"Cc1c(-c2cc(F)cc3c2ccn3C)c(F)c(F)c2c1-n1c(C)nnc1C(C)(C)N2 [Example 521, 6,7-Difluoro-8-(6-fluoro-1-methyl-1H-indol-4-yl)-1,4,4,9-tetramethyl-5H-[1,2,4]triazolo[4,3-a]quinoxaline]"
